The values that follow come from article PMC9610410, “Pelargonium sidoides Root Extract: Simultaneous HPLC Separation, Determination, and Validation of Selected Biomolecules and Evaluation of SARS-CoV-2 Inhibitory Activity” (Pharmaceuticals, 2022).

Molecules are shown by their SMILES. Like-named read-outs stand apart in the source and are kept apart here.

In data set [1] the test system is SARS-CoV-2. Nature of the data set: microbe, parasite or virus in culture. The data set is classed as cell-based. The conditions noted are these: for IC50: Severe acute respiratory syndrome coronavirus 2, Vero C1008, SARS-CoV-2-induced cytopathic effect in Vero E6 cells; for Selectivity Index (SI): antiviral activity relative to cellular toxicity (CC50/IC50), Vero E6. For orientation: Cytopathic effects are the visible damage that an infection or toxin causes in cultured cells.

A short description of a further data set: in vitro. The note with it: African green monkey.
The subject of data set [2] is SARS-CoV-2. Also noted: method as in PMID 34214752. The conditions noted are these: cited from earlier work; for IC50: SARS-CoV-2 in Vero E6 cells, positive controls reported by the same laboratory.
A further data set deals with Vero E6 cells. The conditions noted are these: positive controls reported by the same laboratory; cited from earlier work.
A short description of data set [3]: MTT cytotoxicity assay against normal cell line (Vero E6). The note with it: African green monkey, Vero E6 cells.

What is called IC50 is the concentration at which inhibition is half-maximal.

For the compound `O=C(O)c1cc(O)c(O)c(O)c1` [Gallic acid, 3,4,5-trihydroxybenzoic acid], in the data set with SARS-CoV-2 [1], the 50% inhibitory concentration (IC50) turned out to be 96.41 ± 0.03 µM and the “Selectivity Index (SI)” value was found to be 4.6. Besides, in the data set “in vitro”, the CC50 was determined as 439.7 ± 0.065 µM.
For the compound `COc1cc2ccc(=O)oc2cc1O` [Scopoletin, 7-hydroxy-6-methoxycoumarin], in the data set on SARS-CoV-2 [1], the half-inhibitory concentration (IC50) was found to be 17.8 ± 0.91 µM and the “Selectivity Index (SI)” value is 14.22. This compound yielded a CC50 in “in vitro” of 253.1 ± 0.45 µM.
As to `CCN(CC)CCCC(C)Nc1ccnc2cc(Cl)ccc12` (stereo not shown) [Chloroquine], in the data set with SARS-CoV-2 [2], the half-maximal inhibitory concentration (IC50) is 22.7 µM.
With `CCN(CCO)CCCC(C)Nc1ccnc2cc(Cl)ccc12` (stereo not shown) [Hydroxychloroquine], the CC50 in the data set on Vero E6 cells is 356 µM. Also, the concentration for half-maximal inhibition (IC50) with SARS-CoV-2 [2] is 32.8 µM. The “Selectivity Index (SI)” value with SARS-CoV-2 [2] (positive controls) is 10.85.
In the case of `Oc1cc(O)c2c(c1)O[C@H](c1ccc(O)c(O)c1)[C@@H](O)C2` [Catechin, (+)−catechin], in the data set on SARS-CoV-2 [1], the half-maximal inhibitory concentration (IC50) came to 58.55 ± 0.088 µM and the “Selectivity Index (SI)” value is 0.9. This compound came in with a CC50 in data set [3] of 52.76 ± 0.079 µM.
On the same counts, the results for `COc1c(O)cc2oc(=O)ccc2c1OC` [Umckalin, 7-hydroxy-5,6-dimethoxycoumarin] are 311.6 ± 0.043 µM, 0.5 and 164.1 ± 0.54 µM.
